Laboratory results: patent US20090062223A1, “AMINO TRICYCLIC-NUCLEOSIDE COMPOUNDS, COMPOSITIONS, AND METHODS OF USE” (GENELABS TECHNOLOGIES, INC., priority 2007, published 2009)
≈ marks a conversion by molar mass, not a printed value.

Assays:
[1] = Solubility (shaking flask); assay type: physicochemical; details: thermodynamic from solid, 37° C. for 24 hours
Procedure: The solubility for certain compounds were determined using the following protocol and procedure. 1) The solution, sterile water or phosphate buffer solution (PBS), was added to the test compound tube to make the final concentration 10 mg/mL. 2) The sample tube was vortexed and incubated at 37° C. for 24 hours. During the incubation period, the sample tube was vortexed several times. 3) After the incubation, vortex the tube and centrifuge the tube at 13,000 rpm for 10 mins using an Eppendorf Centrifuge Model 5415C. If the solution was still cloudy, centrifuge it for longer until a clear supernatant was achieved. 4) The supernatant was diluted to 1×, 10× and 100× in 50% ACN in water. 5) A six point standard curve was prepared separately to make the final concentrations of 1 μg/mL, 5 μg/mL, 10 μg/mL, 20 μg/mL, 40 μg/mL and 60 μg/mL. 6) Samples were quantified using an HPLC with UV detector. 7) From the three concentrations of 1×, 10× and 100× supernatant, choose the value, which was fallen into the standard curve range (1 ug/mL-60 ug/mL), as the final result. If all the results were out of the curve range, adjust using a dilution factor to make the value within the curve range.

[2] = system: Caco-2 cells; assay: in vitro; assay type: in vitro ADME
Procedure: Caco-2 cells were maintained in Dulbecco's Modification of Eagle's Medium (DMEM) with sodium pyruvate, Glutmax supplemented with 1% Pen/Strep, 1% NEAA and 10% fetal bovine serum in an incubator set at 37° C., 90% humidity and 5% CO2. Caco-2 cells between passage 43 and 61 were grown to confluence over at least 21-days on 24 well PET (polyethylene-terephthalate) plates (BD Biosciences). Experiments were run using a new HBSS donor buffer from Invitrogen containing additional 10 mM HEPES, 15 mM Glucose with pH adjusted to pH 6.5. The receiver well used HBSS buffer supplemented with 1% BSA and the pH adjusted to pH 7.4. After an initial equilibration with transport buffer, TEER values were read to test membrane integrity. The experiment was started by the addition of buffers containing test compounds and 100 μl of solution is taken at 1 and 2 hrs from the receiver compartment. Removed buffer was replaced with fresh buffer and a correction was applied to all calculations for the removed material. Each compound was tested in 2 separate replicate wells for each condition. All samples were immediately collected into 400 μl 100% acetonitrile acid to precipitate protein and stabilize test compounds. Cells were dosed on the apical or basolateral side to determine forward (A to B) and reverse (B to A) permeability. Permeability through a cell free trans-well was also determined as a measure of cellular permeability through the membrane and non-specific binding. To test for non-specific binding and compound instability the total amount of drug was quantitated at the end of the experiment and compared to the material present in the original dosing solution as a percent recovery. Samples were analyzed by LC/MS/MS.
The apparent permeability, Papp, and % recovery were calculated as follows: […]
where, • dR/dt is the slope of the cumulative concentration in the receiver compartment versus time in μM/s based on receiver concentrations measured at 60 and 120 minute. • Vr and Vd is the volume in the receiver and donor compartment in cm^3, respectively. • A is the area of the cell monolayer (0.33 cm^2). • D0 and D120 is the measured donor concentration at the beginning and end of the experiment, respectively. • R120 is the receiver concentration at the end of the experiment (120 minutes).
The apparent permeability for certain compounds were determined using the above procedure.

[3] = Chemical stability in acidic solution (acid stability); assay type: physicochemical; details: pH 4.5 chemical solution; pH 4.5, 37° C.; read-out: Acid Stability (T ½, mins @ pH 4.5)
[4] = phosphate buffer solution (PBS), aqueous buffer, PBS

Compound | solubility at 24 h [1, 4] | further results
CC(C)C(=O)OC[C@H]1O[C@@H](n2cc3c4c(ncnc42)NC(=O)C=C3N)C(C)(OC(=O)C(C)C)[C@@H]1OC(=O)C(C)C (stereo partly drawn) [Compound 132, Isobutyric acid 5-(9-amino-7-oxo-6,7-dihydro-2,3,5,6-tetraaza-benzo[cd]azulen-2-yl)-3,4-bis-isobutyryloxy-4-methyl-tetrahydro-furan-2-ylmethyl ester] | 44 µg/mL (≈ 78.9 µM) | –
CC(C)C(=O)OCOC(=O)NC1=CC(=O)Nc2ncnc3c2c1cn3[C@@H]1O[C@H](CO)[C@@H](OC(=O)[C@@H](N)C(C)C)[C@]1(C)O [Compound 110, 2-Amino-3-methyl-butyric acid 4-hydroxy-2-hydroxymethyl-5-(9-isobutyryloxymethoxycarbonyl-amino-7-oxo-6,7-dihydro-2,3,5,6-tetraaza-benzo[cd]azulen-2-yl)-4-methyl-tetrahydro-furan-3-yl ester] | 8160 µg/mL (≈ 13800 µM) | –
Cc1oc(=O)oc1COC(=O)NC1=CC(=O)Nc2ncnc3c2c1cn3[C@@H]1O[C@H](COC(=O)C(C)C)[C@@H](OC(=O)C(C)C)C1(C)O (stereo in doubt) [Compound 119, Isobutyric acid 4-hydroxy-3-isobutyryloxy-4-methyl-5-[9-(5-methyl-2-oxo-[1,3]dioxol-4-ylmethoxycarbonylamino)-7-oxo-6,7-dihydro-2,3,5,6-tetraaza-benzo[cd]azulen-2-yl]-tetrahydro-furan-2-ylmethyl ester] | 6 µg/mL (≈ 9.32 µM) | –
Cc1oc(=O)oc1COC(=O)NC1=CC(=O)Nc2ncnc3c2c1cn3[C@@H]1O[C@H](CO)[C@@H](O)C1(C)O (stereo partly drawn) [Compound 126, [2-(3,4-Dihydroxy-5-hydroxymethyl-3-methyl-tetrahydro-furan-2-yl)-7-oxo-6,7-dihydro-2H-2,3,5,6-tetraaza-benzo[cd]azulen-9-yl]-carbamic acid5-methyl-2-oxo-[1,3]dioxol-4-ylmethyl ester] | 40 µg/mL (≈ 79.5 µM) | –
CC(=O)O[C@@H]1[C@@H](CO)O[C@@H](n2cc3c4c(ncnc42)NC(=O)C=C3NC(=O)OCOC(=O)C(C)C)[C@]1(C)O [Compound 112, Isobutyric acid 2-(4-acetoxy-3-hydroxy-5-hydroxymethyl-3-methyl-tetrahydro-furan-2-yl)-7-oxo-6,7-dihydro-2H-2,3,5,6-tetraaza-benzo[cd]azulen-9-ylcarbamoyloxymethyl ester] | 80 µg/mL (≈ 150 µM) | –
CC(=O)OCOC(=O)NC1=CC(=O)Nc2ncnc3c2c1cn3[C@@H]1O[C@H](COC(C)=O)C(OC(C)=O)[C@@]1(C)O (stereo in doubt) [Compound 120, Acetic acid 3-acetoxy-5-(9-acetoxymethoxycarbonylamino-7-oxo-6,7-dihydro-2,3,5,6-tetraaza-benzo[cd]azulen-2-yl)-4-hydroxy-4-methyl-tetrahydro-furan-2-ylmethylester] | 60 µg/mL (≈ 110 µM) | –
CC(=O)OC1(C)[C@H](OC(=O)C(C)C)[C@@H](COC(=O)C(C)C)O[C@H]1n1cc2c3c(ncnc31)NC(=O)C=C2N (stereo in doubt) [Compound 133, Isobutyric acid 4-acetoxy-5-(9-amino-7-oxo-6,7-dihydro-2,3,5,6-tetraaza-benzo[cd]azulen-2-yl)-3-isobutyryloxy-4-methyl-tetrahydro-furan-2-ylmethyl ester] | 17 µg/mL (≈ 32.1 µM) | –
CC(=O)OCOC(=O)NC1=CC(=O)Nc2ncnc3c2c1cn3[C@@H]1O[C@H](COC(=O)C(C)C)[C@@H](OC(=O)C(C)C)[C@@]1(C)O [Compound 111, Isobutyric acid 5-(9-acetoxymethoxycarbonylamino-7-oxo-6,7-dihydro-2,3,5,6-tetraaza-benzo[cd]azulen-2-yl)-4-hydroxy-2-isobutyryloxymethyl-4-methyl-tetrahydro-furan-3-yl ester] | 2 µg/mL (≈ 3.31 µM) | –
CC(C)C(=O)OCOC(=O)NC1=CC(=O)Nc2ncnc3c2c1cn3[C@@H]1O[C@H](CO)[C@@H](OC(=O)C(C)C)C1(C)O (stereo partly drawn) [Compound 125, Isobutyric acid 4-hydroxy-2-hydroxymethyl-5-(9-isobutyryloxymethoxycarbonyl-amino-7-oxo-6,7-dihydro-2,3,5,6-tetraaza-benzo[cd]azulen-2-yl)-4-methyl-tetrahydro-furan-3-yl ester] | 51 µg/mL (≈ 90.8 µM) | –
CC(=O)OC[C@H]1O[C@@H](n2cc3c4c(ncnc42)NC(=O)C=C3NC(=O)OCOC(=O)C(C)C)C(C)(O)[C@@H]1OC(C)=O (stereo in doubt) [Compound 118, Isobutyric acid 2-(4-acetoxy-5-acetoxymethyl-3-hydroxy-3-methyl-tetrahydro-furan-2-yl)-7-oxo-6,7-dihydro-2H-2,3,5,6-tetraaza-benzo[cd]azulen-9-ylcarbamoyloxymethyl ester] | 60 µg/mL (≈ 104 µM) | –
CC(C)C(=O)OCOC(=O)NC1=CC(=O)Nc2ncnc3c2c1cn3[C@@H]1O[C@H](COC(=O)C(C)C)[C@@H](O)C1(C)O (stereo partly drawn) [Compound 129, Isobutyric acid 3,4-dihydroxy-5-(9-isobutyryloxymethoxycarbonyl-amino-7-oxo-6,7-dihydro-2,3,5,6-tetraaza-benzo[cd]azulen-2-yl)-4-methyl-tetrahydro-furan-2-ylmethylester] | – | solubility at 24 h ([1]; sterile water, water): 120 µg/mL (≈ 214 µM); half-life at 1 µg/mL [3]: > 120 min

Further lines, with some results ahead:

solubility at 24 h [1, 4] | Compound | further results
8060 µg/mL (≈ 20000 µM) | CCC(=O)OC[C@H]1O[C@@H](n2cc3c4c(ncnc42)NC(=O)C=C3N)C(C)(O)[C@@H]1O (stereo in doubt) [Compound 131, Propionic acid 5-(9-amino-7-oxo-6,7-dihydro-2,3,5,6-tetraaza-benzo[cd]azulen-2-yl)-3,4-dihydroxy-4-methyl-tetrahydro-furan-2-ylmethylester] | –
11 µg/mL (≈ 20.2 µM) | CCCCCC(=O)OC[C@H]1O[C@@H](n2cc3c4c(ncnc42)NC(=O)C=C3N)[C@@](C)(O)[C@@H]1OC(=O)CCCCC (stereo in doubt) [Compound 102, Hexanoic acid 5-(9-amino-7-oxo-6,7-dihydro-2,3,5,6-tetraaza-benzo[cd]azulen-2-yl)-3-hexanoyloxy-4-hydroxy-4-methyl-tetrahydro-furan-2-ylmethyl ester] | Permeability Papp (A to B) × 10^−6 cm/s (Caco-2 A-B) [2]: high
9150 µg/mL (≈ 23500 µM) | CC(=O)OC[C@H]1O[C@@H](n2cc3c4c(ncnc42)NC(=O)C=C3N)[C@@](C)(O)[C@@H]1O (stereo in doubt) [Compound 107, Acetic acid 5-(9-amino-7-oxo-6,7-dihydro-2,3,5,6-tetraaza-benzo[cd]azulen-2-yl)-3,4-dihydroxy-4-methyl-tetrahydro-furan-2-ylmethylester] | Permeability Papp (A to B) × 10^−6 cm/s (Caco-2 A-B) [2]: low
850 µg/mL (≈ 1850 µM) | CCC(=O)OC[C@H]1O[C@@H](n2cc3c4c(ncnc42)NC(=O)C=C3N)C(C)(O)[C@@H]1OC(=O)CC (stereo in doubt) [Compound 130, Propionic acid 5-(9-amino-7-oxo-6,7-dihydro-2,3,5,6-tetraaza-benzo[cd]azulen-2-yl)-4-hydroxy-4-methyl-3-propionyloxy-tetrahydro-furan-2-ylmethyl ester] | –
133 µg/mL (≈ 258 µM) | CCC(=O)OC[C@H]1O[C@@H](n2cc3c4c(ncnc42)NC(=O)C=C3N)C(C)(OC(=O)CC)[C@@H]1OC(=O)CC (stereo partly drawn) [Compound 127, Propionic acid 5-(9-amino-7-oxo-6,7-dihydro-2,3,5,6-tetraaza-benzo[cd]azulen-2-yl)-4-methyl-3,4-bis-propionyloxy-tetrahydro-furan-2-ylmethyl ester] | –
2950 µg/mL (≈ 7580 µM) | CC(=O)O[C@@H]1[C@@H](CO)O[C@@H](n2cc3c4c(ncnc42)NC(=O)C=C3N)C1(C)O (stereo in doubt) [Compound 114, Acetic acid 5-(9-amino-7-oxo-6,7-dihydro-2,3,5,6-tetraaza-benzo[cd]azulen-2-yl)-4-hydroxy-2-hydroxymethyl-4-methyl-tetrahydro-furan-3-yl ester] | Permeability Papp (A to B) × 10^−6 cm/s (Caco-2 A-B) [2]: medium
